Results on two compounds are retold here after the NIST ThermoML archive (doi:10.1016/j.jct.2012.08.024).

For the series the following is noted: 101.33 kPa, Liquid; for viscosity: Capillary tube (Ostwald / Ubbelohde) method; for mass density: Vibrating tube method.

Usually viscosity stands for the internal friction of a fluid under shear. By mass density is commonly meant mass per unit of volume.

± gives the expanded uncertainty stated by the source.

In the case of `OCCO` [1,2-ethanediol], the viscosity by setting is: (298.15 K) 16.61 ± 0.23 mPa·s; (303.15 K) 13.58 ± 0.18 mPa·s; (308.15 K) 11.24 ± 0.15 mPa·s; (313.15 K) 9.404 ± 0.13 mPa·s; (318.15 K) 7.945 ± 0.11 mPa·s; (323.15 K) 6.774 ± 0.094 mPa·s. The viscosity (328.15 K) was found to be 5.826 ± 0.081 mPa·s. Moreover, the mass density is, setting by setting: (303.15 K) 1106.38 ± 0.08 kg/m3; (313.15 K) 1099.31 ± 0.08 kg/m3; (323.15 K) 1092.16 ± 0.08 kg/m3.
On to `CCO` [ethanol], for which the viscosity by setting is: (298.15 K) 1.087 ± 0.016 mPa·s; (303.15 K) 0.99 ± 0.02 mPa·s; (308.15 K) 0.905 ± 0.013 mPa·s; (313.15 K) 0.829 ± 0.012 mPa·s; (318.15 K) 0.761 ± 0.011 mPa·s; (323.15 K) 0.706 ± 0.01 mPa·s. The viscosity (328.15 K) was found to be 0.648 ± 0.009 mPa·s. For the same compound, the mass density is on record as 785.07 ± 0.15 kg/m3 (298.15 K); 780.75 ± 0.15 kg/m3 (303.15 K); 776.41 ± 0.15 kg/m3 (308.15 K); 772.02 ± 0.15 kg/m3 (313.15 K); 767.59 ± 0.15 kg/m3 (318.15 K); 763.11 ± 0.15 kg/m3 (323.15 K). The mass density (328.15 K) was 758.58 ± 0.16 kg/m3.
